Assay results reported in ChEMBL document CHEMBL1144964, “Inhibition of mandelate racemase by alpha-fluorobenzylphosphonates” (Bioorg Med Chem Lett, 2003).

How the values were obtained:
Mandelate racemase = molecular target: T1, Mandelate racemase (Pseudomonas putida, UniProt P11444); assay: Inhibition constant against Mandelate racemase from Pseudomonas putida at pH 7.5
T1 sequence (P11444 whole entry): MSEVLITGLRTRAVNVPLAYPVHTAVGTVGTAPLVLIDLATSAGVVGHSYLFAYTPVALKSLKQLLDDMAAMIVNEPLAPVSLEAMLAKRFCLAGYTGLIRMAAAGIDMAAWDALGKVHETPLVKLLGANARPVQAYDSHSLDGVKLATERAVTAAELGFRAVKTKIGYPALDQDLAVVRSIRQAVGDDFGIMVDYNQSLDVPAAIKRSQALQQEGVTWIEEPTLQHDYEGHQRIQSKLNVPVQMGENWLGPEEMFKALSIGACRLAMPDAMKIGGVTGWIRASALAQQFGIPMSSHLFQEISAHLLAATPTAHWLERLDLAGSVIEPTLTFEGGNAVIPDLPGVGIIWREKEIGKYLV

[1] = pKa2 (Dissociation constant) value (phosphonate group) was determined; type: physicochemical; details: read-out: pKa2
[2] = Inhibition constant against Mandelate racemase from Pseudomonas putida at pH 6.3
[3] = Inhibition constant against mandelate racemase from Pseudomonas putida at pH 6.3

SMILES | Ki (Mandelate racemase) [µM] | pKa [1] | Ki [2] [µM] | Ki [3] [µM]
O=P(O)(O)[C@@H](F)c1ccccc1 | 1110 | – | – | –
O=P(O)(O)Cc1ccccc1 [BENZYLPHOSPHONIC ACID] | 3600 | – | – | –
O=P(O)(O)C(F)c1ccccc1 (racemic) | 810 | – | – | –
O=C(c1ccccc1)P(=O)(O)O [BENZOYLPHOSPHONATE] | 300 | 5.46 | – | –
O=P(O)(O)[C@@H](O)c1ccccc1 | 34 | 6.89 | – | –
O=P(O)(O)[C@H](F)c1ccccc1 | 530 | – | 87 | –
O=P(O)(O)[C@H](O)c1ccccc1 | 1.1 | 6.89 | – | –
O=P(O)(O)C(O)c1ccccc1 (racemic) [ALPHA HYDROXY BENZYLPHOSPHONATE] | 4.7 | 6.89 | – | –
O=P(O)(O)C(F)(F)c1ccccc1 | 12000 | – | – | 1000
